Consider 28 compounds from patent US6593335B1, “Potassium channel openers” (Abbott Laboratories, priority 1997, dated 2003).

One data set addresses potassium channels (Sus scrofa, UniProt F1SR11). Nature of the data set: Functional potassium channel opening activity in isolated Landrace pig bladder strips (field-stimulated twitch). The note with it: for Landrace Pig Bladder Index: ED50 for P1075 divided by ED50 for the test agonist, averaged over tissues; for Landrace Pig Bladder pD2: negative logarithm of ED50; for Emax: pig, maximal efficacy relative to P1075, field stimulation 0.05Hz, 0.5 milli-seconds at 20 volts. The method, boiled down:
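Landrace pig bladder strips with the mucosa removed were field-stimulated (0.05 Hz, 0.5 ms, 20 V) in Krebs Ringer bicarbonate containing propranolol, and primed with 80 mM KCl. Cumulative concentration-response curves gave maximal efficacy relative to a reference potassium channel opener, pD2, and a potency index (reference ED50/test ED50) averaged across tissues.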

For orientation: Emax means the size of the effect at its maximum, as opposed to the concentration needed. Broadly, the melting point is the temperature, or range, at which the solid turns liquid.

Consider `CC1=C(C(=O)O)C(c2ccc(F)c(Br)c2)C2=C(CCS2(=O)=O)N1` (stereo not shown) [Example 106, 7-(3-bromo-4-fluorophenyl)-5-methyl-2,3,4,7-tetrahydrothieno[3.2-b]pyridine-6-carboxylic acid, 1,1-dioxide], for which the melting point was in the range of 220 to 223 °C. At potassium channels, the “Landrace Pig Bladder Index” value is 0.014, the “Landrace Pig Bladder pD2” value worked out at 5.1 and the Emax was 98%.
The like results for `O=S1(=O)CCC2=C1C(c1ccc(Cl)c(Cl)c1)C1=C(CCS1(=O)=O)N2` [Example 77] were, in that order, > 260 °C, 0.046, 5.5 and 93%.
The like results for `CC(=O)C1=C(C)NC2=C(C1c1ccc(F)c(Br)c1)S(=O)(=O)CCC2` (stereo not shown) [Example 66, 1-[8-(3-bromo-4-fluorophenyl)-3,4,5,8-tetrahydro-6-methyl-1.-dioxido-2H-thiopyrano[3,2-b]pyridin-7-yl)lethan-1-one] were, in that order, > 260 °C, 0.12, 6.3 and 94%.
As to `O=S1(=O)CCC2=C1C(c1ccc(F)c(C(F)(F)F)c1)C1=C(CCS1(=O)=O)N2` [Example 65], the melting point was > 260 °C. For the same compound, at potassium channels, the “Landrace Pig Bladder Index” value is recorded as 0.048, the “Landrace Pig Bladder pD2” value was found to be 6.0 and the Emax amounted to 100%.
The like results for `O=S1(=O)CCC2=C1C(c1ccc(F)c(Cl)c1)C1=C(CCS1(=O)=O)N2` [Example 74] were, in that order, > 260 °C, 0.081, 6.1 and 100%.
`O=[N+]([O-])c1cccc(C2C3=C(CCS3(=O)=O)NC3=C2S(=O)(=O)CC3)c1` [Example 73] showed a melting point of 248 to 252 °C. At potassium channels, the “Landrace Pig Bladder Index” value is listed as 0.0022, the “Landrace Pig Bladder pD2” value is listed as 4.4 and the Emax amounted to 98%.
The like results for `O=S1(=O)CCC2=C1C(c1ccc(Br)c(Br)c1)C1=C(CCS1(=O)=O)N2` [Example 124] were, in that order, > 260 °C, 0.025, 5.3 and 99%.
The matching figures for `N#Cc1cccc(C2C3=C(CCC3=O)NC3=C2S(=O)(=O)CC3)c1` (stereo not shown) [Example 52, 8-(3-cyanophenyl)-2,3,4,5,6,8-hexahydro-7H-cyclopenta[b]thieno [2.3-e]pyridin-7-one, 1,1-dioxide]: 156 to 176 °C, 0.018, 5.6 and 100%.
The like results for `O=S1(=O)CCC2=C1C(c1ccc(Cl)c(C(F)(F)F)c1)C1=C(CCS1(=O)=O)N2` [Example 122] were, in that order, > 260 °C, 0.012, 4.8 and 94%.
Consider `O=S1(=O)CCC2=C1C(c1ccc3nonc3c1)C1=C(CCS1(=O)=O)N2` [Example 123], for which the melting point is > 260 °C. Besides, at potassium channels, the “Landrace Pig Bladder Index” value was determined as 0.0047, the “Landrace Pig Bladder pD2” value is listed as 4.5 and the Emax was found to be 98%.
Take `O=C1CCC2=C1C(c1ccc(F)c(C(F)(F)F)c1)C1=C(CCS1(=O)=O)N2` (stereo not shown) [Example 57, 8-(4-fluoro-3-trifluoromethylphenyl)-2,3,4,5,6,8-hexahydro-7H-cyclopenta[b]thieno [2.3-e]pyridin-7-one, 1,1-dioxide]: the melting point amounted to 254 °C. For the same compound, on potassium channels, the “Landrace Pig Bladder Index” value was determined as 0.42, the “Landrace Pig Bladder pD2” value is recorded as 6.8 and the Emax was 100%.
The matching figures for `O=C1CCCC2=C1C(c1ccc(F)c(Cl)c1)C1=C(CCS1(=O)=O)N2` (single isomer, unassigned; (+)) [Example 109, (+)-9-(3-chloro-4-fluorophenyl)-2,3,5,6,7,9-hexahydrothieno[3,2-b]quinolin-8(4H)-one, 1,1-dioxide]: > 250 °C, 0.36, 6.6 and 100%.
The matching figures for `O=C1CCC2=C1C(c1ccc(Cl)c(Cl)c1)C1=C(CCS1(=O)=O)N2` (stereo not shown) [Example 60, 8-(3 4-dichlorophenyl)-2,3 4,5,6,8-hexahydro-7H-cyclopenta[b]thieno [2,3-e]pyridin-7-one, 1,1-dioxide]: > 260 °C, 0.60, 6.9 and 100%.
Regarding `CC1=C(C(=O)O)C(c2ccc(F)c(Br)c2)C2=C(CCCS2(=O)=O)N1` (stereo not shown) [Example 107], the melting point fell in the range of 208 to 210 °C. In addition, on potassium channels, the “Landrace Pig Bladder Index” value is on record as 0.015, the “Landrace Pig Bladder pD2” value was found to be 5.2 and the Emax worked out at 100%.
For `O=C1CCCC2=C1C(c1ccc(F)c(C(F)(F)F)c1)C1=C(CCS1(=O)=O)N2` (single isomer, unassigned; (+)) [Example 138, (+)-9-[4-fluoro-3-(trifluoromethyl)phenyl]-2,3,5,6,7,9-hexahydrothieno[3,2-b]quinolin-8(4H)-one, 1,1-dioxide], the melting point was > 250 °C.
`O=C1CCC2=C1C(c1ccc(F)c(Br)c1)C1=C(CCS1(=O)=O)N2` (stereo not shown) [Example 56, 8-(3-bromo-4-fluorophenyl)-2,3,4,5,6,8-hexahydro-7H-cyclopenta[b]thieno[2,3-e]pyridin-7-one, 1,1-dioxide]: the melting point was > 260 °C. At potassium channels, the “Landrace Pig Bladder Index” value was 0.88, the “Landrace Pig Bladder pD2” value turned out to be 7.1 and the Emax came to 97%.
For `CC1(C)CCC(=O)C2=C1NC1=C(C2c2ccc(F)c(Br)c2)S(=O)(=O)CC1` (stereo not shown) [Example 212], the melting point was > 270 °C.
For the compound `CC1(C)CCC2=C(C1=O)C(c1ccc(F)c(Br)c1)C1=C(CCS1(=O)=O)N2` (stereo not shown) [Example 116, 9-(3-bromo-4-fluorophenyl)-7,7-dimethyl-2,3,5,6,7,9-hexahydrothieno[3.2-b]quinolin-8(4H)-one, 1,1-dioxide], the melting point is > 270 °C. In addition, at potassium channels, the “Landrace Pig Bladder Index” value is 0.16, the “Landrace Pig Bladder pD2” value came to 6.3 and the Emax was 100%.
On to `Cc1cc(C2C3=C(CCCC3=O)NC3=C2S(=O)(=O)CC3)ccc1F` (stereo not shown) [Example 111, 9-(4-fluoro-3-methylphenyl)-2,3,5,6,7,9-hexahydrothieno[3,2-b]quinolin-8(4H)-one, 1,1-dioxide], for which the melting point is > 260 °C.
As to `O=C1CCC2=C1C(c1ccc([N+](=O)[O-])s1)C1=C(CCS1(=O)=O)N2` (stereo not shown) [Example 70], the melting point lay in the range of 251 to 254 °C. Also, at potassium channels, the “Landrace Pig Bladder Index” value came out at 0.15, the “Landrace Pig Bladder pD2” value turned out to be 6.3 and the maximal response (Emax) came to 100%.
Take `O=C1CCC2=C1C(c1cccc([N+](=O)[O-])c1)C1=C(CCCS1(=O)=O)N2` (stereo not shown) [Example 55, 3,4,5,6,7,9-hexahydro-9-(3-nitrophenyl)cyclopenta[b]thiopyrano [2,3-e]pyridin-8(2H)-one, 1,1-dioxide]: the melting point is > 260 °C.
Turning to `O=C1CCCC2=C1C(c1ccc(Br)s1)C1=C(CCS1(=O)=O)N2` (stereo not shown) [Example 128, 9-(5-bromo-2-thienyl)-2,3,5,6,7,9-hexahydrothieno[3,2-b]quinolin-8(4H)-one, 1,1-dioxide], the melting point is > 250 °C.
On to `O=C1CCC2=C1C(c1cccc(Br)c1)C1=C(CCS1(=O)=O)N2` (stereo not shown) [Example 64, 8-(3-bromophenyl)-2,3,4,5,6,8-hexahydro-7H-cyclopenta[b]thieno [2,3-e]pyridin-7-one, 1,1-dioxide], for which the melting point is 246 °C.
Still for that read-out and setting: for `O=C1CCC2=C1C(c1cc(Br)cs1)C1=C(CCS1(=O)=O)N2` (stereo not shown) [Example 67] the value was 254 to 255 °C; for `O=C1CCCC2=C1C(c1ccc(Br)c(Br)c1)C1=C(CCS1(=O)=O)N2` (stereo not shown) [Example 137, 9-(3 4-dibromophenyl)-2,3,5,6,79-hexahydrothieno[3,2-b]quinolin-8(4H)-one 1 1-dioxide], > 250 °C.
For `O=C1CCCC2=C1C(c1ccc(F)c(Cl)c1)C1=C(CCS1(=O)=O)N2` (stereo not shown) [Example 81, 9-(3-chloro-4-fluorophenyl)-2,3,5,6,7,9-hexahydrothieno [3.2-b]quinolin-8(4H)-one, 1 1-dioxide], the melting point is > 260 °C. Moreover, on potassium channels, the “Landrace Pig Bladder Index” value amounted to 0.39, the “Landrace Pig Bladder pD2” value is reported as 6.4 and the Emax stood at 91%.
As for `O=C1CCCC2=C1C(c1ccncc1)C1=C(CCS1(=O)=O)N2` (stereo not shown) [Example 118, 9-(4-pyridinyl)-2,3.5,6,7,9-hexahydrothieno[3,2-b]quinolin-8(4H)-one, 1,1-dioxide], the melting point was > 250 °C.
Same read-out and setting: for `O=C1CCC2=C1C(c1ccc(Br)cc1)C1=C(CCS1(=O)=O)N2` (stereo not shown) [Example 78] the value was 253 to 256 °C.
